In ChEMBL document CHEMBL1150976, “The selectivity of protein kinase inhibitors: a further update” (Biochem J, 2007):

Tests used:
[1] = molecular target: SRSF protein kinase 1 (Homo sapiens) (UniProt Q96SB4); experiment: Percentage SRPK1 activity remaining in the presence of 0.01uM inhibitor
[2] = molecular target: Glycogen synthase kinase-3 beta (Homo sapiens, UniProt P49841); experiment: Percentage GSK3-beta activity remaining in the presence of 25uM inhibitor
[3] = molecular target: T1, Serine/threonine-protein kinase Nek2 (Homo sapiens) (UniProt P51955); experiment: Percentage NEK2a activity remaining in the presence of 25uM inhibitor
T1 sequence (whole entry): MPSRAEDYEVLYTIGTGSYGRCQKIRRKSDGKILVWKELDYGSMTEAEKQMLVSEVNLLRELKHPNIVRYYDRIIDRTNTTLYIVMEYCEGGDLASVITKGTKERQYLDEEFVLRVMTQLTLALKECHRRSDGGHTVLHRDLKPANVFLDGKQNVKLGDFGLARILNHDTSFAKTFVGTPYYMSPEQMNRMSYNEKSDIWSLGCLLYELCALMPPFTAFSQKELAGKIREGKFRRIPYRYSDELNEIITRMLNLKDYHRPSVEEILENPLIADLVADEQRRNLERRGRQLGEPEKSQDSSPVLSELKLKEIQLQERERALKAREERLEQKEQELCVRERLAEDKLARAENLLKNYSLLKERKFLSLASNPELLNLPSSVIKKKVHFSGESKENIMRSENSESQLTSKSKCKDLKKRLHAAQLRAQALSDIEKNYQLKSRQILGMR

[4] = molecular target: Rho-associated protein kinase 2 (Homo sapiens) (UniProt O75116); experiment: Percentage ROCK2 activity remaining in the presence of 25uM inhibitor
Sequence of Rho-associated protein kinase 2 (Homo sapiens) (O75116 whole entry, looked up): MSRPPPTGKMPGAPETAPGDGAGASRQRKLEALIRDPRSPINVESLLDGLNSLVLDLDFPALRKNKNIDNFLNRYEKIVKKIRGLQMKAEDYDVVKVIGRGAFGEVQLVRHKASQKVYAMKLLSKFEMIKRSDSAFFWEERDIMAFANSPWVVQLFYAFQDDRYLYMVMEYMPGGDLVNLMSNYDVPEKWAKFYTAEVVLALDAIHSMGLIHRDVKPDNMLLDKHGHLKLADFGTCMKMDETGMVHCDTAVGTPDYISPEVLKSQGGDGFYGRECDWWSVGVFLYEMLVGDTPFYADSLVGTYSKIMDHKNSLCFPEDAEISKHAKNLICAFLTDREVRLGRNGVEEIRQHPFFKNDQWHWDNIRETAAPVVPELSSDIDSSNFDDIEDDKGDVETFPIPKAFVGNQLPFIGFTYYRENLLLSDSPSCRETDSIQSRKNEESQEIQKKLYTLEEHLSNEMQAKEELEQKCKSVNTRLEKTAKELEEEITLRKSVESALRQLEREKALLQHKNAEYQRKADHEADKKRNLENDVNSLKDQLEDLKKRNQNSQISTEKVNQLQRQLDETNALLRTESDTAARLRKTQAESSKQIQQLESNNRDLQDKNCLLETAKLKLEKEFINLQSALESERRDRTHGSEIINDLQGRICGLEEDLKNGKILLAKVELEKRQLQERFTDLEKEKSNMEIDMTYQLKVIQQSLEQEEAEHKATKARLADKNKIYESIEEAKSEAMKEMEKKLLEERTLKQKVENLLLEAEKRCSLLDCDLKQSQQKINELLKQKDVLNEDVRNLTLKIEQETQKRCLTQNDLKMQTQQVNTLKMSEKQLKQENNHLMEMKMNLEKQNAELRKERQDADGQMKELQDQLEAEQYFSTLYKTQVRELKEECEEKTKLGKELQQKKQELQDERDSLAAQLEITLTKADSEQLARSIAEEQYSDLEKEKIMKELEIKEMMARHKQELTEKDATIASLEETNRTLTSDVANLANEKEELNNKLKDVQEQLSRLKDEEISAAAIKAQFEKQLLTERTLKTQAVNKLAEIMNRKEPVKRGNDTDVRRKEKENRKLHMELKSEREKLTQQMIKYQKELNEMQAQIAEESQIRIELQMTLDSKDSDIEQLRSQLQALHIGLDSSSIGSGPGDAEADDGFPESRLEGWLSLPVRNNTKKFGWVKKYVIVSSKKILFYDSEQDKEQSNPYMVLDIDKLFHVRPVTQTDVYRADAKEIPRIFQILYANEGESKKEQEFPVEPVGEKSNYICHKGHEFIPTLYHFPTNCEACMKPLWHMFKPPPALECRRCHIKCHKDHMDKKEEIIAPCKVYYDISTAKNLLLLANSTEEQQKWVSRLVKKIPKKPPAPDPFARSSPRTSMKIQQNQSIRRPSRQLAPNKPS

[5] = organism: Homo sapiens; experiment: Percentage PHK activity remaining in the presence of 25uM inhibitor
[6] = molecular target: Serine/threonine-protein kinase PAK 4 (Homo sapiens, UniProt O96013); experiment: Percentage PAK4 activity remaining in the presence of 25uM inhibitor
Sequence of Serine/threonine-protein kinase PAK 4 (O96013 whole entry, looked up): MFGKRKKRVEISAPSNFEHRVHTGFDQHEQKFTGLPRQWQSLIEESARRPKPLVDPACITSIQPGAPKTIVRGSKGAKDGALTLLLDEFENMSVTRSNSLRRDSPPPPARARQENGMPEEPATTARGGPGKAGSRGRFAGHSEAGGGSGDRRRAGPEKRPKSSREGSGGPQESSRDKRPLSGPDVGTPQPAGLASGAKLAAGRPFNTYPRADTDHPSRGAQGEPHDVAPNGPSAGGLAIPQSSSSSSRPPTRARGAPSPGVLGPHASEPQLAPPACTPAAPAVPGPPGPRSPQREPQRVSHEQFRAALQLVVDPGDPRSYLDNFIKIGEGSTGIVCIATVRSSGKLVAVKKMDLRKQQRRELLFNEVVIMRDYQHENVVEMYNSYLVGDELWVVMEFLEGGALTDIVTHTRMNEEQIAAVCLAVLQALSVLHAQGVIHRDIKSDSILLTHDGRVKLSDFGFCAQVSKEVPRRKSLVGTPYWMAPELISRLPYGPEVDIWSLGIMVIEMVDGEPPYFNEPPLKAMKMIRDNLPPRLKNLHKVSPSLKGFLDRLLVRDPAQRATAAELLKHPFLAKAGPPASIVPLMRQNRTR

[7] = molecular target: Serine/threonine-protein kinase pim-2 (Homo sapiens, UniProt Q9P1W9); experiment: Percentage PIM2 activity remaining in the presence of 25uM inhibitor
Sequence of Serine/threonine-protein kinase pim-2 (Q9P1W9 whole entry, looked up): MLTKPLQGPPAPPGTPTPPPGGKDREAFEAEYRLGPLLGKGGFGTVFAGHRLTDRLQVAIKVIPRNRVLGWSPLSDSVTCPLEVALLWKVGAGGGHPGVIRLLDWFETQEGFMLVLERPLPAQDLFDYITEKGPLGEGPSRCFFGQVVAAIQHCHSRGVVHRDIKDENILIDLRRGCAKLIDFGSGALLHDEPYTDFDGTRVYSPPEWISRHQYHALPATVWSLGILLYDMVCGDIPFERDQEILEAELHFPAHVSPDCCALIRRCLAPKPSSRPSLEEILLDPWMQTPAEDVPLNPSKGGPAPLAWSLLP

[8] = molecular target: T2, Eukaryotic elongation factor 2 kinase (Homo sapiens) (UniProt O00418); experiment: Percentage EF2K activity remaining in the presence of 25uM inhibitor
T2 sequence (whole entry): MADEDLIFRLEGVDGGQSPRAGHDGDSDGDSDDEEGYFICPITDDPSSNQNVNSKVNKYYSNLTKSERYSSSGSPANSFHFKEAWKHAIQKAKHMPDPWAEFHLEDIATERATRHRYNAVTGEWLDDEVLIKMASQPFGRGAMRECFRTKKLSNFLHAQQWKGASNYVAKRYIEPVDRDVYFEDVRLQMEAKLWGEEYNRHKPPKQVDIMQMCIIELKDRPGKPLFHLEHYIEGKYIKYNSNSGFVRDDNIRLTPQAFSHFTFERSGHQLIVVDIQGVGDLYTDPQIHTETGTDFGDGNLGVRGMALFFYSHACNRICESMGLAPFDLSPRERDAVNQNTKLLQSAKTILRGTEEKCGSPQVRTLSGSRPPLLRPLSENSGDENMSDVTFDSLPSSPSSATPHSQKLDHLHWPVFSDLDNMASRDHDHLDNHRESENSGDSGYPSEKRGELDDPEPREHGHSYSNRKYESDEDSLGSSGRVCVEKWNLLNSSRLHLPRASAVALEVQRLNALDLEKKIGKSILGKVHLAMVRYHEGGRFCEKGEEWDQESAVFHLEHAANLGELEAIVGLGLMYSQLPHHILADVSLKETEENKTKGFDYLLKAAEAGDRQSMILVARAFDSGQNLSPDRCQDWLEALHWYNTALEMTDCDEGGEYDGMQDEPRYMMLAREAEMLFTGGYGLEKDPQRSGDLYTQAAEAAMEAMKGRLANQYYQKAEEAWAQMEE

[9] = molecular target: Serine/threonine-protein kinase pim-1 (Homo sapiens, UniProt P11309); experiment: Percentage PIM1 activity remaining in the presence of 25uM inhibitor; details: filed as antagonist
Sequence of Serine/threonine-protein kinase pim-1 (P11309 whole entry, looked up): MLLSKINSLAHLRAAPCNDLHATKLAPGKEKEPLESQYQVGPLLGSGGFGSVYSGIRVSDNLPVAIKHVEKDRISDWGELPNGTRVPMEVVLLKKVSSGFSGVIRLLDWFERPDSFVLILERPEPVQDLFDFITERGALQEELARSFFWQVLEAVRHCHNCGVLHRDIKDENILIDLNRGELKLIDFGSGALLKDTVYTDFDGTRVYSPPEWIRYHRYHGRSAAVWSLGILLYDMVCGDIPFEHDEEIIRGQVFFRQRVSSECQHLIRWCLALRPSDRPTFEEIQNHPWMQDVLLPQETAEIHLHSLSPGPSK

[10] = molecular target: T3, MAP kinase-activated protein kinase 5 (Homo sapiens) (UniProt Q8IW41); experiment: Percentage PRAK activity remaining in the presence of 25uM inhibitor
T3 sequence (whole entry): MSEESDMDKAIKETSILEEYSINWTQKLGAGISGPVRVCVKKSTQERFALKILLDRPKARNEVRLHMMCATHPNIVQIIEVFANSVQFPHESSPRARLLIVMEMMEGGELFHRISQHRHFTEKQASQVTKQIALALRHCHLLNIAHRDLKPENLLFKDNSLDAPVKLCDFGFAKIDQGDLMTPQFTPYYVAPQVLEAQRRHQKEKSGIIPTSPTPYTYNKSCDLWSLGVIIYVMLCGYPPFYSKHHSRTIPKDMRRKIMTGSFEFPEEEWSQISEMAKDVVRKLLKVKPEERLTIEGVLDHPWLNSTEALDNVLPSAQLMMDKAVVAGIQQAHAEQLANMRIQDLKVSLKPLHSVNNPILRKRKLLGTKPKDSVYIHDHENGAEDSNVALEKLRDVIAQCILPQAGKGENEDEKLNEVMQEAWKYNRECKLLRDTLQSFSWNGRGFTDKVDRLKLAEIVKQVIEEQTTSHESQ

[11] = molecular target: Mitogen-activated protein kinase 10 (Homo sapiens) (UniProt P53779); experiment: Percentage JNK3 activity remaining in the presence of 25uM inhibitor
Sequence of Mitogen-activated protein kinase 10 (Homo sapiens) (P53779 whole entry): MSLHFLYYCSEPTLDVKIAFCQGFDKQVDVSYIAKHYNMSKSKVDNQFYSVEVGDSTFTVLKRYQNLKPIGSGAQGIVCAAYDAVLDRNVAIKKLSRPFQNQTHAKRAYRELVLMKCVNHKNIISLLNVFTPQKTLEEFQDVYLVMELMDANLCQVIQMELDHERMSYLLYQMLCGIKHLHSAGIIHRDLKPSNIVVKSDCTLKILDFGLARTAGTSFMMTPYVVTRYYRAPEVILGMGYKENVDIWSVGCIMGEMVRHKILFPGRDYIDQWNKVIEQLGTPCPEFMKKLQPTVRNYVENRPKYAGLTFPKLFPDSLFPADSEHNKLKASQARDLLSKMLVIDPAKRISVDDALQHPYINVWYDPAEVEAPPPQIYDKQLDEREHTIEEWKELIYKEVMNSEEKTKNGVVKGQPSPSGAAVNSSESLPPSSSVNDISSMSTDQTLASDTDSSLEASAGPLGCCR

[12] = organism: Rattus norvegicus; experiment: Percentage AMPK activity remaining in the presence of 25uM inhibitor
[13] = molecular target: T4, 3-phosphoinositide-dependent protein kinase 1 (Homo sapiens) (UniProt O15530); experiment: Percentage PDK1 activity remaining in the presence of 0.01uM inhibitor; details: filed as antagonist
T4 sequence (whole entry): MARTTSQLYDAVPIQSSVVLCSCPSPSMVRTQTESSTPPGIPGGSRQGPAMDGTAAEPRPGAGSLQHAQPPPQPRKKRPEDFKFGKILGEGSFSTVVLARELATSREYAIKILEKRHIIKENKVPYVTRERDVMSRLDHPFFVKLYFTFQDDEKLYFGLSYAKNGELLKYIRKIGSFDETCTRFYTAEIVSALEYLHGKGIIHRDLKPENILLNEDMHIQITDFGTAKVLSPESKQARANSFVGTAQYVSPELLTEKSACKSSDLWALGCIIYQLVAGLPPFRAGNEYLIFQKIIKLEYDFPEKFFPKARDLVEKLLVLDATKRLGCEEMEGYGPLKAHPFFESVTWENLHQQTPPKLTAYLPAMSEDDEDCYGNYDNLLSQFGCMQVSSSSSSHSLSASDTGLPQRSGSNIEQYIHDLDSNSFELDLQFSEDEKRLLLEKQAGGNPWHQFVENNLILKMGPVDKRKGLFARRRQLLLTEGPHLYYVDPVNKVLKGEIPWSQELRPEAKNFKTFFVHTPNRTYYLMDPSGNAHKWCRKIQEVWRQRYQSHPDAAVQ

Sequence of Glycogen synthase kinase-3 beta (P49841 whole entry, looked up): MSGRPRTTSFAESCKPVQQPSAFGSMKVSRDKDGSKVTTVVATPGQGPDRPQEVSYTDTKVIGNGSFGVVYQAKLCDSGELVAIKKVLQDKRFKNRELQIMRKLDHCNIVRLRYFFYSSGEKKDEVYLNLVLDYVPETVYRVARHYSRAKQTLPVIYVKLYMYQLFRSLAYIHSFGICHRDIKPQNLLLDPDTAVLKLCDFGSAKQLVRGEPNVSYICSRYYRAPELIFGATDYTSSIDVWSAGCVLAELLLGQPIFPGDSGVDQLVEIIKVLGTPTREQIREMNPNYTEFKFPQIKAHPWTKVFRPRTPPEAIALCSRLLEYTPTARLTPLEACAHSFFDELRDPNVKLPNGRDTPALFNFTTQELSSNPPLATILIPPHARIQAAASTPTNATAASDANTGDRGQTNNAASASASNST
Sequence of SRSF protein kinase 1 (Homo sapiens) (Q96SB4 whole entry): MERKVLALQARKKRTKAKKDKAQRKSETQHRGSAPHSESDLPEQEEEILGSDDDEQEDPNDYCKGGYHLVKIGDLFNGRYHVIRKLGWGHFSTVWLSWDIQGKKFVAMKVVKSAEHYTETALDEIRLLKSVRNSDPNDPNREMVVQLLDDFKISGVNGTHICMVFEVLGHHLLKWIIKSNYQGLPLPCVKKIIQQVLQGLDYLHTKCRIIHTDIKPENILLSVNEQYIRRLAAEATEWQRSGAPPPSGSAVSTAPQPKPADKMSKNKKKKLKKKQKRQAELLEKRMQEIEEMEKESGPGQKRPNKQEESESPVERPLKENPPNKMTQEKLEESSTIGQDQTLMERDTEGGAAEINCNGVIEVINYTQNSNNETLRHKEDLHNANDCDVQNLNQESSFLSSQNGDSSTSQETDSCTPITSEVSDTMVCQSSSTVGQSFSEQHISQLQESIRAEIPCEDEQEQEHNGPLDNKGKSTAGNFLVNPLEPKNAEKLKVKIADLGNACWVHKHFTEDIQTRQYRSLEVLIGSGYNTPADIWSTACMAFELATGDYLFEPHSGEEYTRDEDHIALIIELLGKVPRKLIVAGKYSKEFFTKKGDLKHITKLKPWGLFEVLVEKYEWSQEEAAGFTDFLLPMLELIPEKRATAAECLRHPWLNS

Activity ([12]; filed as antagonist) [%]	Compound	Activity [1] [%]	Activity [2] [%]	Activity [3] [%]	Activity [4] [%]	Activity [5] [%]	Activity [6] [%]	Activity [7] [%]	Activity [8] [%]	Activity [9] [%]	Activity [10] [%]	Activity [11] [%]	Activity [12] [%]	Activity [13] [%]
	Cc1n[nH]c2ccc(-c3cncc(OC[C@@H](N)Cc4c[nH]c5ccccc45)c3)cc12	92												
	COc1cc(OC)c(/C=C2/C(=O)Nc3ccccc32)c(OC)c1		74	75	78	86	84	75	100	43	82	93	71	
29	NCCNS(=O)(=O)c1ccc(Cl)c2ccncc12		75	85	65	72	88	55	94	28	81	103		
	CN[C@@H]1C[C@H]2O[C@@](C)([C@@H]1OC)n1c3ccccc3c3c4c(c5c6ccccc6n2c5c31)C(=O)N[C@H]4O (stereo in doubt)													2
	O=C(NCCCNc1nc(Nc2cccc(NC(=O)N3CCCC3)c2)ncc1I)c1cccs1	99												30
